Tests used:
[1] = tested on: C. sporogenes; experiment: IPA production by concentrated C. sporogenes bacterial solution with Trp and/or Phe; format: cell-based, Clostridium sporogenes; details: 37° C., anaerobic, 24 hr; Trp 0.3 mM fixed, Phe 0.3-1.2 mM; FIG. 1-3
Description: To evaluate the influence of Trp and a combination of Trp and Phe on IPA production, pure culture experiments using C. sporogenes were performed. As C. sporogenes, in-house strain of Ajinomoto Co., Inc. was used. First, 800 μL of C. sporogenes glycerol stock was added to 40 mL of reinforced Clostridium medium and cultured under anaerobic conditions at 37° C. for 18 hr. After culturing, centrifugation was performed at 9,100×g for 5 min at 4° C., and the precipitate was collected under anaerobic conditions, washed twice with PBS, and finally suspended in 5 mL of PBS after anaerobic treatment to obtain a concentrated bacterial solution. The influence of the concentrated bacterial solution on IPA production was investigated. […] Furthermore, similar to Experimental Example 1, the influence of Phe/Trp molar ratios between 1 and 10 on IPA production in C. sporogenes was evaluated using GEM analysis.
The IPA concentration in the culture supernatant was analyzed using an LC-MS/MS mass spectrometry system (mass spectrometer: SCIEX API3200, pump: Shimadzu Corporation LC-20AD, autosampler: Shimadzu Corporation SIL-20AC, column oven: Shimadzu Corporation CTO-20AC, system controller: Shimadzu Corporation CBM-20A, degasser: Shimadzu Corporation DGU-20A, nitrogen generator: Airtech AT5NP-25CSL). […]

[2] = tested on: C. sporogenes; experiment: Pure culture growth test of C. sporogenes with added amino acid (OD600); format: cell-based, Clostridium sporogenes; details: amino acid added at final concentration 4 mM; 1/5 diluted medium; vs control; FIG. 1-2
Description: Amino acids that promote the growth of an IPA-producing bacterium C. sporogenes were narrowed down using a genome-scale metabolic model (GEM) simulation, and then evaluated in a pure culture system. The GEM simulation was performed using COBRA toolbox of MATLAB (registered trademark), and amino acids that affected the growth of C. sporogenes when 20 types of amino acids were removed one by one were selected. Then, the influence of amino acids selected by GEM analysis on the growth of C. sporogenes was investigated in a pure culture system. As C. sporogenes, an in-house strain from Ajinomoto Co., Inc. was used, and as the culture medium, ⅕ diluted enhanced Clostridium medium (Difico, #62620609) was used. Each amino acid was added to the medium to a final concentration of 4 mM, and the growth of C. sporogenes was evaluated using OD600 as an indicator. The control contained no addition of amino acid (culture medium only).

Structure (SMILES): N[C@@H](Cc1ccccc1)C(=O)O [Phe, L-phenylalanine]
- IPA in the culture supernatant [1]: no effect
- growth of C. sporogenes (OD600) [2]: promoted the growth of C. sporogenes
